In patent US9452037B2, “Delivery of oral care products” (INTERNATIONAL SCIENTIFIC PTY LTD, priority 2010, dated 2016):

Assay: Tooth whitening of extracted human teeth with carbamide peroxide gel, delivered passively or with displaced dipolar magnetic elements in motion
Conditions: for relative (%) change in tooth colour (reduction in yellow content), mean: 700 mg of 36% gel, 10 teeth; for relative (%) change in tooth colour (reduction in yellow content), mean / average shift from the yellow spectrum to the white spectrum, mean / change in colour luminosity, mean: 3 minutes daily for 5 days; for average shift from the yellow spectrum to the white spectrum, mean / change in colour luminosity, mean: 36% gel
Procedure: The ability of the devices of the present invention to deliver active agents (carbamide peroxide) through the dentine of teeth was tested.
20 human teeth were donated by a registered oral surgeon and stored in alcohol for 48 hours prior to ultrasonic cleaning and drying using warm air and absorbent paper. Teeth were divided into two groups. 10 teeth were allocated to the active group (exposed to pairs of displaced dipolar magnetic elements in motion) and 10 allocated to the passive delivery group (exposed to materials with no magnetic field but also in motion). Size, colour and degree of degeneration were matched between the groups.
Individual teeth were photographed using controlled light conditions before and after application of Carbamide Peroxide Gel using a 10 megapixel camera (Pentax Optio) digital camera. Commercial digital imaging software (Photoshop CS2 version 9), was used in CMYK mode to degenerate histograms and images of matched regions of enamel in tooth before and after application.
Each tooth was treated using 700 mg of 36% Carbaminde Peroxide based Tooth Whitening gel. This measure of gel was place on the surface of 10 sized matched pairs of displaced dipolar magnetic elements comprising flexible ETP008 magnetic material formed of a parallel linear array of displaced dipolar magnetic elements with common pole pairs of 450 gauss peak flux with a centre to centre spatial separation of 4 mm oscillated by electrical motor at a frequency of 3 Hz [this is also known as the field-in-motion or FIM group, or eM patch group]. The control group was placed on the surface of polystyrene cards and also oscillated at 3 Hz using the same motorized oscillation means. Teeth were placed horizontally into the carbamide peroxide gel mounds ensuring complete contact and coverage. After 3 minutes of exposure, teeth were removed, cleaned and preserved for the following day. This was repeated for 5 consecutive days.
Analysis was conducted using three measures of colour change. Relative change in percentage of yellow in the image, changes in the spectrum shift from yellow to white and in the luminosity level.
Relative change in the percentage of Yellow in the matched regions of enamel was taken as reflecting the change in the colour of the underlying dentin materials. Differences in the relative change in the Yellow spectrum were interpreted as reflecting the different penetrations rates of peroxide delivery through the enamel under active and passive conditions.
Changes in the spectrum medium point reflects change in colour from the yellow towards the white end of the spectrum. Again, differences in spectrum medium point location were interpreted as reflecting the different penetrations rates of peroxide delivery through the enamel under active and passive conditions.
Luminosity was recorded as a measure of brightness with changes reflecting different penetrations rates of peroxide delivery through the enamel under active and passive conditions.

[1] = Magnetic FIM (eM-patch): ETP008 array oscillated at 3 Hz
[2] = Passive: no magnetic field, oscillated at 3 Hz

## NC(N)=O.OO [carbamide peroxide]
[1]
  relative (%) change in tooth colour (reduction in yellow content), mean: 43.98%
  average shift from the yellow spectrum to the white spectrum, mean: 36.20
  change in colour luminosity, mean: 29.54
[2]
  average shift from the yellow spectrum to the white spectrum, mean: 27.70
  change in colour luminosity, mean: 21.09
Passive: polystyrene card oscillated at 3 Hz, no magnetic field
  relative (%) change in tooth colour (reduction in yellow content), mean: 29.58%
Magnetic elements in motion vs passive, p=0.023
  greater increase in luminosity than the passive group: 40%
Magnetic elements in motion vs passive, p=0.025
  greater reduction in yellow content compared to the passive group: 49%
Magnetic elements in motion vs passive, p=0.044
  average shift from yellow to white spectrum greater than the passive diffusion group: 31%
